For the assay, the target named is T1, human IBAT (Homo sapiens, UniProt Q12908).
T1 construct: Bases 599 to 1645 correspond to the complete coding region of human IBAT; expressed in transfected cells; pcDNA1 vector
T1 sequence (Q12908 1-348): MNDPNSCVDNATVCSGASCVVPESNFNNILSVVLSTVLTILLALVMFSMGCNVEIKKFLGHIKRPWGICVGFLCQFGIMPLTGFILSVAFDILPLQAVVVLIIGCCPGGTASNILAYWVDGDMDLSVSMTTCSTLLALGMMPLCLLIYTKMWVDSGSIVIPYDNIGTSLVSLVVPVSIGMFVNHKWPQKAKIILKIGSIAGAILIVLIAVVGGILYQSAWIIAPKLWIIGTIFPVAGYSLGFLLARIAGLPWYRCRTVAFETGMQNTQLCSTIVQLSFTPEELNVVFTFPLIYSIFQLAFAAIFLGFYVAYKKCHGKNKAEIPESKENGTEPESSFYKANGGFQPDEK
Description: in vitro IBAT inhibition assay: IBAT-dependent uptake of [3H]-taurocholic acid into CHO-hIBAT cells. Type of assay: cell-based. The settings on record: 10 μM taurocholic acid, 60 min at room temperature, read-out: IC-50 (human IBAT).
Description: The cell clone with the highest uptake activity for [^3H]-TCA, referred to hereinafter as CHO-hIBAT, was selected for the further assays and further cultured in the presence of 400 μg/ml Geneticin.
3. Measurement of the Inhibitory Effect of the Compound of the Invention on the IBAT-Dependent Uptake of Taurocholic Acid into Cells
CHO-hIBAT cells were seeded in a concentration of 40 000 cells per well in poly-D-lysine-coated 96-well plates in cell culture medium and cultured for 24 h. […] Finally, 100 μl of scintillation fluid were added to each well, and the radioactivity taken up into the cells was determined in a MicroBeta Scintillation Microplate Reader from Wallac.
The half-maximum inhibitory effect of the test compound (IC50 value, inhibitory concentration 50) was determined in the following way: • 1. […] This is the measurement in the absence of substance, measured in sodium-containing transport assay buffer. • 2. […] This is the measurement in the absence of substance, measured in sodium-free transport assay buffer. • 3. […]

For the molecule `CCCC[C@]1(CC)CS(=O)(=O)c2ccc(N(C)C)cc2[C@@H](c2cccc(NC(=O)N[C@@H]3O[C@H](CO)[C@@H](O)[C@H](O)[C@H]3O)c2)[C@H]1O` [Example 1], the IC50 was found to be 2.5 nM.

Consider `CCCCC1(CCCC)CS(=O)(=O)c2ccc(N(C)C)cc2[C@@H](c2cccc(NC(=O)N[C@@H]3O[C@H](CO)[C@@H](O)[C@H](O)[C@H]3O)c2)[C@H]1O` [Example 2], for which the IC50 stood at 6 nM.

For the origin of these results see patent publication US8106023B2, “1,4-benzothiepin-1, 1-dioxide derivatives with improved properties method for producing the same, drugs containing said compounds and the use thereof” (Sanofi-Aventis Deutschland GmbH, priority 2006, dated 2012).
